Experimental findings from patent US8575351B2, “Active metabolite of a thrombin receptor antagonist” (Merck Sharp & Dohme Corp., priority 2009, dated 2013) are described below.

Structures are written as SMILES. “Also recorded” adds a separate entry of the source.

Series [1] in a line: Rising single dose study: LC-MS profiling of SCH 530348 metabolites in plasma and urine. The format is in vivo, human. The following applies: for Amount detected in urine (LC-MS): 0-24 hr urine after single 40-mg SCH 530348, humans; for Matrix in which metabolite was detected: single oral 20 and 40 mg SCH 530348, healthy male volunteers, plasma and urine extracts; for Amount detected in plasma (LC-MS): first 6-hr period after single 20- or 40-mg SCH 530348, humans. From the text: Phase I clinical studies were designed to evaluate the pharmacokinetics of SCH 530348 in healthy subjects after rising single and multiple doses. The studies included a randomized, evaluator-blind, placebo-controlled, rising single dose (“RSD”) study and a rising multiple dose (“RMD”) study of orally administered SCH 530348 in healthy subjects.
In the single-dose study, 50 healthy males were enrolled into 6 sequential cohorts and randomized to receive in ascending dose manner placebo (n=2-3/group) or oral SCH 530348 (0.25, 1, 5, 10, 20 and 40 mg; n=5-6/group). The objective of this study was to qualitatively assess SCH 530348 metabolites in selected plasma and urine samples following administration of a single oral dose (20 mg or 40 mg, Groups 5 and 6, respectively) of SCH 530348 to healthy male human subjects. Plasma samples from subjects receiving 20 mg and 40 mg of SCH 530348 or placebo were profiled using liquid chromatography-mass spectrometry (“LC-MS”). Only urine samples from 40 mg dose group were profiled. Corresponding plasma and urine LC-MS profiles from the drug- and placebo-dosed subjects were compared to distinguish the drug-derived components from the endogenous material. Next, metabolites were further characterized using liquid chromatography-tandem mass spectrometry (“LC-MS/MS”) methods. Pathways involved in metabolism of SCH 530348 in humans were proposed.
The samples were analyzed using LC-MS System B comprised of TSQ Quantum (Thermo Electron Corp., San Jose, Calif.) operating in a positive electrospray ionization mode, HPLC module Alliance 2695 (Waters, Corp., Milford, Mass.), and flow scintillation analyzer 500TR Series (PerkinElmer Life and Analytical Sciences, Inc., Boston, Mass.).
The clinical phase of the study was conducted at Pharma Bio-Research Group B.V. (Zuidlaren, The Netherlands). Selected plasma and urine samples from Group 5 (20 mg dose and placebo) and Group 6 (40 mg dose and placebo) were shipped and received frozen at Schering-Plough Research Institute (“SPRI”). The samples were stored at −20±10° C. until processing and analysis for metabolites.
Plasma samples from subjects dosed with SCH 530348 or with placebo, in the […], were pooled as summarized in the following table.
To determine extraction efficiency, all available pre-dose plasma from subjects dosed with SCH 530348 (40-mg dose group) was also pooled across subjects. A 2.0 mL aliquot of plasma was spiked with 10 μL of a system suitability mixture (“SSM”) [SCH 530348 and ^14C-SCH 530348 (combined concentration 40 ng/μL, 5000 DPM/μL), SCH 540679 (40 ng/μL), and SCH 609528 (40 ng/μL)] and processed by solvent extraction with protein precipitation. After extracting once with three volumes of acetonitrile, the supernatant was concentrated and reconstituted in dimethylsulfoxide (˜50% of final sample volume) followed by the addition of 1/1 mixture of mobile phases A and B. Following centrifugation, a sample aliquot was analyzed by liquid chromatography-mass spectrometry/flow scintillation analysis (LC-MS/FSA).
A similar procedure was used to process all plasma samples from the drug- or placebo-administered subjects (20- and 40-mg dose groups), and an aliquot of each reconstituted extract was injected for LC-MS analysis. Targeted LC-MS/MS analysis to confirm the presence of metabolites and characterize their structures was also performed.
Urine samples collected during the first 24-hr period post 40-mg dose were pooled across all SCH 530348-dosed subjects (n=5) and across placebo subjects (n=3). Five milliliters of urine (20% of available urine) were pooled from each subject.
To determine the extraction efficiency, 10% of available pre-dose urine from subjects to be dosed with SCH 530348 was also pooled across the subjects. An aliquot (ca. 3.15 mL) was spiked with 15 μL of SSM and extracted by solid-phase extraction. The urine sample was loaded onto a conditioned Sep-Pak Vac tC18 (Waters Corp.) cartridge and washed with water. […]

The next series deals with T1, thrombin receptor (Homo sapiens, UniProt P25116).
T1 construct: human coronary artery smooth muscle cell assay measuring effects on thrombin receptor agonist peptide; endogenous in cells; host or cells: human coronary artery smooth muscle cells
T1 sequence (P25116 22-425): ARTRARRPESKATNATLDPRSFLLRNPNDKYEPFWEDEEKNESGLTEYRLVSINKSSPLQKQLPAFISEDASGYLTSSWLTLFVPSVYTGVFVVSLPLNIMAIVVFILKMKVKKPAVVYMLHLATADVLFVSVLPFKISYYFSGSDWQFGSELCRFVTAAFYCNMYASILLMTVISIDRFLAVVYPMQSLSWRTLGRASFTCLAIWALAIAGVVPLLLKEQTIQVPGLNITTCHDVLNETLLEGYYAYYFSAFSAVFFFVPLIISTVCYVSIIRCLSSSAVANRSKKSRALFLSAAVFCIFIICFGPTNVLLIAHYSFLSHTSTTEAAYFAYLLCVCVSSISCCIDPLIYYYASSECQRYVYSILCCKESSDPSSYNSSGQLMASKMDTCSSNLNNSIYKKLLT
Put plainly: Calcium transient assay (human coronary artery smooth muscle cells, TK-induced calcium efflux). The format is cell-based. The protocol: Upon analysis, it was determined that, unlike the other detected metabolites, the concentration of the M20 metabolite in the blood was sufficient for it to be considered a “major metabolite.” That finding triggered an evaluation of its activity. In order to assess activity, SCH 530348 and the M20 metabolite were subjected to a human coronary artery smooth muscle cell assay measuring effects on thrombin receptor agonist peptide TFLLRNPNDK-NH2 (“TK”) on calcium efflux (“the calcium transient assay”).

Series [2] can be described thus: Animal study, M20 exposure multiples in monkeys. Format: in vivo. The following applies: single dose at 0.5 mg/kg. The protocol: (§1) Exposure multiples exceeded 10 in monkeys after a single dose at 0.5 mg/kg, 25 in mice after a single dose at 75 mg/kg, and 50 in female rabbits on day 7 after multiple daily doses at 20 mg/kg.
A short description of series [3]: Animal study, M20 exposure multiples in mice. Format: in vivo. The following applies: single dose at 75 mg/kg. The protocol: as §1
A short description of series [4]: Animal study, M20 formation and exposure multiples in rabbits. The format is in vivo. The protocol:
as §1

Series [5] can be described thus: Blood levels in placebo-controlled safety study of SCH 530348 in non-urgent PCI subjects. The format is in vivo, human. An excerpt:
In a multi-center, randomized, double-blind, placebo-controlled study to evaluate the safety of SCH 530348 in subjects undergoing non-urgent percutaneous coronary intervention (“PCI”), blood samples were taken on days 15, 31, 60, 75, and 91. A steady state blood level concentration of SCH 530348 was reached by day 31. By day 31, the M20 metabolite was present in the blood at levels of 30-40% of those of the parent (SCH 530348).

Regarding `C[C@H]1OC(=O)[C@@H]2C[C@@H]3C[C@H](NC(=O)OCC(=O)O)CC[C@H]3[C@H](/C=C/c3ccc(-c4cccc(F)c4)cn3)[C@H]12` [Metabolite M16, [[[[(1R,3aR,4aR,6R,8aR,9S,9aS)-9-[(E)-2-[5-(3-fluorophenyl)-2-pyridinyl]ethenyl]dodecahydro-1-methyl-3-oxonaphtho[2,3-c]furan-6-yl]amino]carbonyl]oxy]acetic acid], in series [1], the “Amount detected in urine (LC-MS)” value is “minor to trace levels” and the “Matrix in which metabolite was detected” value was “Urine”.
On to `C[C@H]1OC(=O)[C@@H]2C[C@@H]3C[C@H](N)CC[C@H]3[C@H](/C=C/c3ccc(-c4cccc(F)c4)cn3)[C@H]12` [Metabolite M19, (3R,3aS,4S,4aR,7R,8aR,9aR)-7-amino-4-[(E)-2-[5-(3-fluorophenyl)-2-pyridinyl]ethenyl]-decahydro-3-methylnaphtho[2,3-c]furan-1(3H)-one], for which, in series [1], the “Amount detected in urine (LC-MS)” value was “minor to trace levels”, the “Amount detected in plasma (LC-MS)” value is listed as “Trace amounts” and the “Matrix in which metabolite was detected” value is “Plasma,; also recorded: Urine”.
As for `C[C@H]1OC(=O)[C@@H]2C[C@@H]3C[C@H](NC(=O)OCCO)CC[C@H]3[C@H](/C=C/c3ccc(-c4cccc(F)c4)cn3)[C@H]12` [Metabolite M20, 2-hydroxyethyl(1R,3aR,4aR,6R,9S,9aS)-9-{(E)-2(5-(3-fluorophenyl)pyridine-2-yl)vinvl}-1-methyl-3-oxododecahydronaphtho[2,3-c]furan-6ylcarbamate], the “Amount detected in plasma (LC-MS)” value in series [1] is “Trace amounts”. Also, the “Matrix in which metabolite was detected” value in series [1] is “Plasma”. Moreover, the IC50 at thrombin receptor (agonist peptide TFLLRNPNDK-NH2 (TK)) stood at 3.4 nM. In addition, the Exposure multiples result in series [2] is reported as “exceeded 10”; in series [3], over 25; in series [4] (female rabbits, day 7 after multiple daily doses at 20 mg/kg), over 50. Moreover, in series [4] (rabbits, after both single and multiple doses), the “Formation of metabolite in animals” value is listed as “formed”. Further, the “Blood level as % of that of the parent (SCH 530348)” value in series [5] (by day 31) is 30-40%.
Consider `CCOC(=O)N[C@@H]1CC[C@@H]2[C@@H](C1)C[C@H]1C(=O)O[C@H](C)[C@H]1[C@H]2/C=C/c1ccc(-c2cccc(F)c2)cn1` [SCH 530348, Ethyl[(1R,3aR,4aR,6R,8aR,9S,9aS)-9-[(E)-2-[5-(3-fluorophenyl)-2-pyridinyl]ethenyl]dodecahydro-1-methyl-3-oxonaphtho[2,3-c]furan-6-yl]carbamate, reference compound], for which, in series [1], the “Amount detected in urine (LC-MS)” value was “not detected” and the “Amount detected in plasma (LC-MS)” value is “primary circulating component”. For the same compound, the IC50 at thrombin receptor (agonist peptide […]-NH2 (TK)) came to 4.5 nM. The “Time to steady state blood level concentration” value in series [5] (blood samples on days 15, 31, 60, 75, 91) was at most 31 days.
